Reference: ChEMBL document CHEMBL1136644, “Alkylation of manganese(II) tetraphenylporphyrin by antimalarial fluorinated artemisinin derivatives” (Bioorg Med Chem Lett, 2003)
pIC50: −log10 of the molar value.

Key:
Plasmodium falciparum = test: In vitro inhibitory activity against the chloroquine-resistant Plasmodium falciparum W2 Indochina; format: functional, organism-based
[1] = Half-life in plasma; format: ADME, cell-free
[2] = Partition coefficient (logP); format: physicochemical; conditions: octanol/water

logP [2]	Structure (SMILES)	pIC50 (Plasmodium falciparum)	half-life [1]
–	C[C@@H]1CC[C@H]2[C@@H](C)[C@](O[Si](C)(C)C)(C(F)(F)F)O[C@@H]3O[C@]4(C)CC[C@@H]1C32OO4	7.14	–
–	C[C@@H]1CC[C@H]2[C@@H](C)C(=O)O[C@@H]3OC4(C)CC[C@@H]1[C@]32OO4 (single isomer, unassigned) [ARTEMISININ]	–	< 2 h
3.36	CO[C@H]1O[C@@H]2OC3(C)CC[C@H]4[C@H](C)CC[C@@H]([C@H]1C)[C@@]24OO3 (single isomer, unassigned) [ARTEMETHER]	–	< 2 h
–	C[C@H]1[C@@H](C(=O)OCCC(=O)[O-])O[C@@H]2O[C@]3(C)CC[C@H]4[C@H](C)CC[C@@H]1C24OO3.[Na+]	–	< 2 h
